Data published in PubChem BioAssay AID2060493 (Molecular Pharmacology Branch, DTP, NCI, 2025).

Tested on: 616215-338-R-J1-PDC tumor spheroids, viability
Assay: Anticancer human tumor 616215-338-R-J1-PDC patient-derived colon adenocarcinoma cell line growth inhibition [GQUAD]
Conditions: spheroids with HUVEC and MSC; for IC50: curve of first compound; for viability, T/C: stronger effect = lower value; active = viability on the fitted dose curve at most 10% of control; inactive = the rest
In short: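 Multi-cell-type spheroids of tumor cells with HUVEC and mesenchymal stem cells, treated with drug combinations. Concentrations descend in half-log steps from near clinical Cmax, or from 10 microM where Cmax is unknown; viability read-out.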

[1] = second compound 0.0316 µM, first compound 0.0316 µM
[2] = second compound 0.0316 µM, first compound 0.1 µM
[3] = second compound 0.0316 µM, first compound 0.316 µM
[4] = second compound 0.0316 µM, first compound 1 µM
[5] = second compound 0.0316 µM, first compound 3.16 µM
[6] = second compound 0.0316 µM, first compound 10 µM
[7] = second compound 0.1 µM, first compound 0.0316 µM
[8] = second compound 0.1 µM, first compound 0.1 µM
[9] = second compound 0.1 µM, first compound 0.316 µM
[10] = second compound 0.1 µM, first compound 1 µM
[11] = second compound 0.1 µM, first compound 3.16 µM
[12] = second compound 0.1 µM, first compound 10 µM
[13] = second compound 0.316 µM, first compound 0.0316 µM
[14] = second compound 0.316 µM, first compound 0.1 µM
[15] = second compound 0.316 µM, first compound 0.316 µM
[16] = second compound 0.316 µM, first compound 1 µM
[17] = second compound 0.316 µM, first compound 3.16 µM
[18] = second compound 0.316 µM, first compound 10 µM
[19] = second compound 1 µM, first compound 0.0316 µM
[20] = second compound 1 µM, first compound 0.1 µM
[21] = second compound 1 µM, first compound 0.316 µM
[22] = second compound 1 µM, first compound 1 µM
[23] = second compound 1 µM, first compound 3.16 µM
[24] = second compound 1 µM, first compound 10 µM
[25] = second compound 3.16 µM, first compound 0.0316 µM
[26] = second compound 3.16 µM, first compound 0.1 µM
[27] = second compound 3.16 µM, first compound 0.316 µM
[28] = second compound 3.16 µM, first compound 1 µM
[29] = second compound 3.16 µM, first compound 3.16 µM
[30] = second compound 3.16 µM, first compound 10 µM
[31] = second compound 10 µM, first compound 0.0316 µM
[32] = second compound 10 µM, first compound 0.1 µM
[33] = second compound 10 µM, first compound 0.316 µM
[34] = second compound 10 µM, first compound 1 µM
[35] = second compound 10 µM, first compound 3.16 µM
[36] = second compound 10 µM, first compound 10 µM
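Also: spheroids exposed to agents for 7 days before readout.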
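For viability, T/C in this document: percent viability relative to DMSO vehicle control wells taken as 100%.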

O=C(NO)c1cnc(N2CCN(S(=O)(=O)c3ccc4ccccc4c3)CC2)nc1 + Cc1[nH]c2ccc(F)cc2c1-c1nc2c3cccnc3c3ncccc3c2[nH]1
active: viability, T/C [4] 6.64% | viability, T/C [5] 0.1% | viability, T/C [6] 0.12% | viability, T/C [10] 1.07% | viability, T/C [11] 0.04% | viability, T/C [12] 0.07% | viability, T/C [16] 1.02% | viability, T/C [17] 0.02% | viability, T/C [18] 0.05% | viability, T/C [22] 4.76% | viability, T/C [23] 0.03% | viability, T/C [24] 0.06% | viability, T/C [28] 2.81% | viability, T/C [29] 0.06% | viability, T/C [30] 0.08% | viability, T/C [34] 3.03% | viability, T/C [35] 0.15% | viability, T/C [36] 0.63%
0.369 µM: IC50 (second compound 1 µM)
0.422 µM: IC50 (second compound 10 µM)
0.343 µM: IC50 (second compound 0.1 µM)
0.466 µM: IC50 (second compound 0.316 µM)
0.324 µM: IC50 (second compound 3.16 µM)
inactive: viability, T/C [1] 96.2% | viability, T/C [2] 94% | viability, T/C [3] 62% | viability, T/C [7] 98.6% | viability, T/C [8] 94.8% | viability, T/C [9] 53.8% | viability, T/C [13] 117% | viability, T/C [14] 110% | viability, T/C [15] 74.5% | viability, T/C [19] 103% | viability, T/C [20] 94.6% | viability, T/C [21] 57.6% | viability, T/C [25] 104% | viability, T/C [26] 96.9% | viability, T/C [27] 51.4% | viability, T/C [31] 103% | viability, T/C [32] 94.6% | viability, T/C [33] 65.7%
0.406 µM: IC50 (second compound 0.0316 µM)

CCCS(=O)(=O)Nc1ccc(F)c(C(=O)c2c[nH]c3ncc(-c4ccc(Cl)cc4)cc23)c1F + Cc1[nH]c2ccc(F)cc2c1-c1nc2c3cccnc3c3ncccc3c2[nH]1
5.62 µM: IC50 (second compound 0.316 µM)
4.76 µM: IC50 (second compound 10 µM)
5.28 µM: IC50 (second compound 0.1 µM)
active: viability, T/C [6] 2.78% | viability, T/C [12] 3.08% | viability, T/C [18] 3.41% | viability, T/C [24] 2.83% | viability, T/C [30] 1.44% | viability, T/C [36] 1.37%
5.42 µM: IC50 (second compound 1 µM)
5.54 µM: IC50 (second compound 0.0316 µM)
inactive: viability, T/C [1] 105% | viability, T/C [2] 96.7% | viability, T/C [3] 93.8% | viability, T/C [4] 99.1% | viability, T/C [5] 94.9% | viability, T/C [7] 93.6% | viability, T/C [8] 107% | viability, T/C [9] 102% | viability, T/C [10] 102% | viability, T/C [11] 87.6% | viability, T/C [13] 104% | viability, T/C [14] 98.7% | viability, T/C [15] 99% | viability, T/C [16] 98% | viability, T/C [17] 96.5% | viability, T/C [19] 109% | viability, T/C [20] 106% | viability, T/C [21] 89% | viability, T/C [22] 96.3% | viability, T/C [23] 91.5% | viability, T/C [25] 96.7% | viability, T/C [26] 91.4% | viability, T/C [27] 101% | viability, T/C [28] 95.2% | viability, T/C [29] 86.6% | viability, T/C [31] 101% | viability, T/C [32] 92.3% | viability, T/C [33] 101% | viability, T/C [34] 93.5% | viability, T/C [35] 76.8%
5.19 µM: IC50 (second compound 3.16 µM)
